The source of these data is ChEMBL document CHEMBL1201862, “PubChem BioAssay data set” (2004).

Test systems include IGROV-1; HT-29; HL-60; HCT-116; OVCAR-3; PC-3; UO-31; OVCAR-8; T47D; MOLT-4; M14; NCI/ADR-RES; LOX IMVI; DU-145; A549; SK-MEL-2; SW-620; HOP-62; UACC-257; A498.
What all share (assay): DTP human tumour cell line panel, 48 h

Counter-ions that a name gives are not always drawn.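 48-hour exposure; five concentrations; linearly interpolated endpoints. GI50 marks 50% less growth.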 The source made the active and inactive calls. Rule as the data show it: active = GI50 up to about 1.1 µM and inactive = higher.

For `O=C(O)c1ccccc1/C=N/N=C1c2ccccc2-c2ccccc21`, the GI50 with IGROV-1 is 43.3 µM (inactive); in the assay on HT-29, 29 µM (inactive); with HL-60, 28.8 µM (inactive); in the assay on HCT-116, 31 µM (inactive); in the assay on OVCAR-3, 15.6 µM (inactive); with PC-3, 30.3 µM (inactive). In addition, the GI50 is 32.7 µM (inactive) with UO-31; 44.9 µM (inactive) in the assay with OVCAR-8; 30.7 µM (inactive) in the assay on T47D; 22.5 µM (inactive) with MOLT-4; 42.2 µM (inactive) in the assay on M14; 52.8 µM (inactive) with NCI/ADR-RES. In addition, the GI50 in the assay on LOX IMVI is 37.7 µM (inactive); with DU-145, 42.7 µM (inactive); in the assay on A549 it was 31.6 µM (inactive); in the assay with SK-MEL-2, 44.1 µM (inactive); in the assay with SW-620, 32.4 µM (inactive); in the assay on HOP-62, 42.6 µM (inactive). In addition, the GI50 in the assay with UACC-257 was 85.1 µM (inactive); with A498, 68.4 µM (inactive).

With `CSc1c(C#N)c(O)nc(N)c1C(=O)Nc1ccc(C)cc1`, the GI50 was > 100 µM (inactive) with HT-29; > 100 µM (inactive) in the assay with HL-60; > 100 µM (inactive) in the assay on HCT-116; > 100 µM (inactive) in the assay with OVCAR-3; > 100 µM (inactive) in the assay on PC-3; 31.4 µM (inactive) with UO-31. Besides, the GI50 with OVCAR-8, with T47D, with MOLT-4, with M14, with NCI/ADR-RES and with LOX IMVI was > 100 µM (inactive) each time. Moreover, the GI50 with DU-145 is > 100 µM (inactive); in the assay on A549, > 100 µM (inactive); with SK-MEL-2 it was > 100 µM (inactive); in the assay with SW-620, > 100 µM (inactive); in the assay on UACC-257, > 100 µM (inactive); in the assay with A498 it was 38.9 µM (inactive).

Consider `CCN(CC)CCNc1ccc(C)c2sc3ccccc3c(=O)c12` [LUCANTHONE HYDROCHLORIDE], for which the GI50 in the assay on IGROV-1 was 5.42 µM (inactive); in the assay with HT-29 it was 1.67 µM (inactive); in the assay on HL-60, 1.79 µM (inactive); in the assay with HCT-116, 1.91 µM (inactive); in the assay on OVCAR-3 it was 6.08 µM (inactive); in the assay with PC-3, 2.03 µM (inactive). The GI50 with UO-31 is 1.57 µM (inactive); with OVCAR-8 it was 3.4 µM (inactive); in the assay on T47D, 7.08 µM (inactive); with MOLT-4, 1.27 µM (inactive); in the assay with M14 it was 1.75 µM (inactive); with NCI/ADR-RES, 4.3 µM (inactive). The GI50 with LOX IMVI was 1.49 µM (inactive); with DU-145, 6.67 µM (inactive); in the assay with A549 it was 2.61 µM (inactive); in the assay with SK-MEL-2, 3.83 µM (inactive); in the assay with SW-620 it was 1.76 µM (inactive); with HOP-62 it was 6.5 µM (inactive). Besides, the GI50 in the assay with UACC-257 was 1.66 µM (inactive); with A498 it was 2.23 µM (inactive).

With `CC(C)=CCC[C@@H](C)c1c2ncc[nH]c-2c(C)c(=O)c1O`, the GI50 with IGROV-1 is 26.7 µM (inactive); with HT-29, 27.4 µM (inactive); in the assay on HL-60 it was 7.03 µM (inactive); with HCT-116, 37.1 µM (inactive); in the assay with OVCAR-3, 27.4 µM (inactive); in the assay on PC-3, 35.2 µM (inactive). Moreover, the GI50 in the assay on UO-31 was 6.92 µM (inactive); in the assay on OVCAR-8, 10 µM (inactive); in the assay on T47D, 25.9 µM (inactive); in the assay on MOLT-4, 10.4 µM (inactive); in the assay with M14 it was 27.9 µM (inactive); with NCI/ADR-RES, 4.49 µM (inactive). For the same compound, the GI50 in the assay on LOX IMVI was 25.1 µM (inactive); in the assay on DU-145 it was 31.6 µM (inactive); with A549 it was 22.1 µM (inactive); in the assay on SK-MEL-2 it was 18.6 µM (inactive); with SW-620, 33.1 µM (inactive); in the assay on HOP-62, 19.2 µM (inactive). For the same compound, the GI50 with UACC-257 is 31.9 µM (inactive); in the assay on A498, 30 µM (inactive).

Turning to `O=C(O)C1(Cc2ccc3c(c2)CCC3)Cc2ccccc2C1=O` (stereo not drawn), the GI50 in the assay with IGROV-1 was 57.8 µM (inactive); with HT-29, > 100 µM (inactive); in the assay on HL-60, 43.5 µM (inactive); with HCT-116, 39 µM (inactive); in the assay with OVCAR-3 it was 54 µM (inactive); in the assay with PC-3, 46.7 µM (inactive). The GI50 in the assay on UO-31 was 56 µM (inactive); in the assay with OVCAR-8, 83 µM (inactive); in the assay with T47D it was 40.9 µM (inactive); in the assay with MOLT-4, 91.4 µM (inactive); with M14 it was > 100 µM (inactive); in the assay with NCI/ADR-RES it was 58.1 µM (inactive). In addition, the GI50 is 78 µM (inactive) with LOX IMVI; 75.3 µM (inactive) in the assay on DU-145; 42.3 µM (inactive) in the assay on A549; 46 µM (inactive) with SK-MEL-2; 75.7 µM (inactive) in the assay on SW-620; 57.8 µM (inactive) in the assay on HOP-62. In addition, the GI50 in the assay with UACC-257 was > 100 µM (inactive); with A498, 42.5 µM (inactive).

Turning to `O=c1[nH]nc(-c2ccccc2)c2[nH]c3c(c12)Cc1ccccc1-3`, the GI50 is 0.723 µM (active) with IGROV-1; 1.4 µM (inactive) with HT-29; 0.665 µM (active) with HL-60; 1.82 µM (inactive) with HCT-116; 0.914 µM (active) with OVCAR-3; 4.47 µM (inactive) in the assay with PC-3. Also, the GI50 in the assay on UO-31 was 5.41 µM (inactive); in the assay with OVCAR-8, 6.61 µM (inactive); in the assay with T47D, > 100 µM (inactive); in the assay on MOLT-4, 1.19 µM (inactive); with M14, 4.06 µM (inactive); in the assay with NCI/ADR-RES it was 2.14 µM (inactive). Further, the GI50 in the assay on LOX IMVI is 6.11 µM (inactive); in the assay on DU-145 it was 10.4 µM (inactive); with A549, 21.2 µM (inactive); in the assay with SK-MEL-2, 1.43 µM (inactive); with SW-620 it was 2.06 µM (inactive); in the assay on HOP-62, 9.38 µM (inactive). In addition, the GI50 in the assay with A498 was 2.35 µM (inactive).

Regarding `CC(=O)/C=N/CC(=O)O`, the GI50 with IGROV-1, with HT-29, in the assay on HL-60, in the assay with HCT-116, with OVCAR-3 and in the assay with PC-3 was > 100 µM (inactive) throughout. Further, the GI50 with OVCAR-8, in the assay on T47D, in the assay on MOLT-4, with M14, with NCI/ADR-RES and with LOX IMVI was > 100 µM (inactive) in each case. Besides, the GI50 in the assay with DU-145, in the assay with A549, with SK-MEL-2, with SW-620, in the assay with HOP-62 and in the assay on UACC-257 was > 100 µM (inactive) in each case. In addition, in the assay on A498, the GI50 is > 100 µM (inactive).

Turning to `CC(C)[C@H](NC(=O)OCc1ccccc1)C(=O)N[C@H](/C=C/C(=O)OC(C)(C)C)CO`, the GI50 is > 100 µM (inactive) in the assay on IGROV-1; > 100 µM (inactive) in the assay with HT-29; 57.1 µM (inactive) in the assay with HL-60; 71.9 µM (inactive) in the assay on HCT-116; > 100 µM (inactive) in the assay on OVCAR-3; 68.1 µM (inactive) in the assay with PC-3. Besides, the GI50 in the assay with OVCAR-8 was > 100 µM (inactive); in the assay with T47D it was 36.7 µM (inactive); in the assay with MOLT-4, > 100 µM (inactive); in the assay with M14 it was > 100 µM (inactive); in the assay with NCI/ADR-RES, > 100 µM (inactive); in the assay with LOX IMVI it was > 100 µM (inactive). Also, the GI50 in the assay on DU-145 was > 100 µM (inactive); in the assay on A549 it was > 100 µM (inactive); in the assay with SK-MEL-2, > 100 µM (inactive); with SW-620, 92.9 µM (inactive); in the assay on HOP-62 it was > 100 µM (inactive); with UACC-257, > 100 µM (inactive). The GI50 in the assay with A498 is > 100 µM (inactive).

With `CCSSCS(C)(=O)=O`, the GI50 is 30.4 µM (inactive) with HT-29; 11.9 µM (inactive) in the assay with HL-60; 23.6 µM (inactive) in the assay with HCT-116; 26.5 µM (inactive) with OVCAR-3; 40 µM (inactive) in the assay on PC-3; 11 µM (inactive) in the assay with UO-31. Also, the GI50 in the assay with OVCAR-8 is 21.6 µM (inactive); in the assay on T47D, 35.2 µM (inactive); with MOLT-4 it was 0.975 µM (active); with M14 it was 20.4 µM (inactive); in the assay with NCI/ADR-RES it was 31.8 µM (inactive); with LOX IMVI it was 34.8 µM (inactive). The GI50 was 19.1 µM (inactive) in the assay with DU-145; 36.7 µM (inactive) in the assay with A549; 39.1 µM (inactive) with SK-MEL-2; 5.05 µM (inactive) in the assay with SW-620; 39.3 µM (inactive) with HOP-62; 21.3 µM (inactive) with UACC-257. Also, in the assay on A498, the GI50 was 32.3 µM (inactive).

For the compound `O=C1c2ccccc2-c2cc([N+](=O)[O-])c([N+](=O)[O-])cc21`, the GI50 in the assay on IGROV-1 was 1.49 µM (inactive); in the assay with HT-29, 1.91 µM (inactive); in the assay with HL-60, 0.564 µM (active); in the assay on HCT-116, 1.94 µM (inactive); in the assay with PC-3, 1.55 µM (inactive); in the assay with UO-31 it was 1.67 µM (inactive). The GI50 in the assay with OVCAR-8 is 1.64 µM (inactive); in the assay on T47D, 0.748 µM (active); in the assay on MOLT-4, 0.482 µM (active); with M14 it was 1.77 µM (inactive); with NCI/ADR-RES it was 2.81 µM (inactive); in the assay on LOX IMVI, 0.861 µM (active). Further, the GI50 was 1.77 µM (inactive) with DU-145; 2.43 µM (inactive) with A549; 1.87 µM (inactive) with SK-MEL-2; 1.58 µM (inactive) in the assay on SW-620; 1.58 µM (inactive) in the assay on HOP-62; 1.41 µM (inactive) in the assay on UACC-257. The GI50 in the assay with A498 is 17.2 µM (inactive).
